Test results as given in patent publication US20180298024A1, “CORTISTATIN ANALOGS AND USES THEREOF” (President and Fellows of Harvard College, priority 2015, published 2018).

How the values were obtained:
Adenosine Transporter = biological target: T1, Adenosine Transporter (Cavia porcellus, UniProt H0V4R7); assay: Panlab assay, Adenosine Transporter; assay type: binding
T1 sequence (H0V4R7 1-461): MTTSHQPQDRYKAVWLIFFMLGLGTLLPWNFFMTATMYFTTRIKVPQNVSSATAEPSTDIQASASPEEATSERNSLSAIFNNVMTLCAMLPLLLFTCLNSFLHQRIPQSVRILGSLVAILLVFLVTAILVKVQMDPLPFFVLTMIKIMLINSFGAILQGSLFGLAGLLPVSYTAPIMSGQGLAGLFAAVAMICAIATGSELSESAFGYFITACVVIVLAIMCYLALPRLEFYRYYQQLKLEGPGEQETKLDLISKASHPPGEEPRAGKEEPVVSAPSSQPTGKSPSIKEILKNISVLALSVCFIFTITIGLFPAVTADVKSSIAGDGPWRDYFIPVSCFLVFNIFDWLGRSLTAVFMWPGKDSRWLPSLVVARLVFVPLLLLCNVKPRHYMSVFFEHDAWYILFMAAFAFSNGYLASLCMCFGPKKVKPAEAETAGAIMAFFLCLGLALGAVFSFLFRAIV
Experimental: (§1) Compounds A, B, C, and D were tested in Panlab assays to evaluate potential off-target activity using standard assay kits. Methods employed in these studies have been adapted from the scientific literature to maximize reliability and reproducibility. Reference standards were run as an integral part of each assay to ensure the validity of the results obtained.
(§2) IC50 values were determined by a non-linear, least squares regression analysis using MathIQ™ (ID Business Solutions Ltd., UK). Where inhibition constants (Ki) are presented, the Ki values were calculated using the equation of Cheng and Prusoff (Cheng, Y., Prusoff, W. H., Biochem. Pharmacol. 22:3099-3108, 1973) using the observed IC50 of the tested compound, the concentration of radioligand employed in the assay, and the historical values for the KD of the ligand (obtained experimentally at Eurofins Panlabs, Inc.). Where presented, the Hill coefficient (nH), defining the slope of the competitive binding curve, was calculated using MathIQ™.

320 protein kinases = assay: 33PanQinase radiometric kinase assay, kinome profiling; assay type: biochemical, human; conditions: 1 μM; 320 kinases; initial test
Experimental: (§3) A radiometric protein kinase assay (33PanQinase Activity Assay) was used for measuring the kinase activity of the 320 protein kinases. All kinase assays were performed in 96-well FlashPlates™ from Perkin Elmer (Boston, Mass., USA) in a 50 μl reaction volume. The reaction cocktail was pipetted in 4 steps in the following order: • 1. 10 μl of non-radioactive ATP solution (in H2O) • 2. 25 μl of assay buffer/[γ-33P]-ATP mixture • 3. 5 μl of test sample in 10% DMSO • 4. 10 μl of enzyme/substrate mixture
(§4) All PKC assays (except the PKC-mu and the PKC-nu assay) additionally contained 1 mM CaCl2, 4 mM EDTA, 5 μg/ml phosphatidylserine and 1 μg/ml 1,2-dioleyl-glycerol.
The CAMKID, CAMK2A, CAMK2B, CAMK2D, CAMK4, CAMKK1, CAMKK2, DAPK2, EEF2K, MYLK, MYLK2 and MYLK3 assays additionally contained 1 μg/ml Calmodulin and 0.5 mM CaCl2). […] Incorporation of 33Pi (counting of “cpm”) was determined with a microplate scintillation counter (Microbeta, Wallac). […]
Kinases from external vendors CAR=Carna Biosciences Inc.; INV=Life Technologies (Invitrogen Corporation); MIL=Merck-Millipore (Millipore Corporation) were expressed, purified and quality-controlled by virtue of the vendors readings.
For each kinase, the median value of the cpm of three wells was defined as “low control” (n=3). […] The residual activity (in %) for each compounds well was calculated by using the following formula: […]

Tachykinin NK1 = biological target: T2, Tachykinin NK1 (Homo sapiens, UniProt P25103); assay: Panlab assay, Tachykinin NK1; assay type: binding
T2 construct: Eurofins Panlabs
T2 sequence (P25103 whole entry): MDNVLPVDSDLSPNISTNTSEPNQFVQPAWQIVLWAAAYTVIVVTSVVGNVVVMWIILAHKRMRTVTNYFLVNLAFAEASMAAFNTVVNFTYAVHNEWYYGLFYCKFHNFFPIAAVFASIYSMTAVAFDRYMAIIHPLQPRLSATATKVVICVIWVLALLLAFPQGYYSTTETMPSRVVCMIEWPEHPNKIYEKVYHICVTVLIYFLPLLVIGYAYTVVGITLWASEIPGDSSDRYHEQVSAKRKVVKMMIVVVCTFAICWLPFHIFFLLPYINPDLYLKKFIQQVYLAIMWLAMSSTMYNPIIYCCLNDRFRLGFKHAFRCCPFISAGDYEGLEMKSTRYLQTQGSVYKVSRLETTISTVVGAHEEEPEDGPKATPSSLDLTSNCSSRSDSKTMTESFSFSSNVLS
Experimental: as §1, §2

Phosphodiesterase PDE3 = biological target: T3, Phosphodiesterase PDE3 (Homo sapiens, UniProt Q14432); assay: Panlab assay, Phosphodiesterase PDE3; assay type: biochemical; conditions: read-out: IC50, inhibition of Phosphodiesterase PDE3 activity
T3 construct: Eurofins Panlabs
T3 sequence (Q14432 whole entry): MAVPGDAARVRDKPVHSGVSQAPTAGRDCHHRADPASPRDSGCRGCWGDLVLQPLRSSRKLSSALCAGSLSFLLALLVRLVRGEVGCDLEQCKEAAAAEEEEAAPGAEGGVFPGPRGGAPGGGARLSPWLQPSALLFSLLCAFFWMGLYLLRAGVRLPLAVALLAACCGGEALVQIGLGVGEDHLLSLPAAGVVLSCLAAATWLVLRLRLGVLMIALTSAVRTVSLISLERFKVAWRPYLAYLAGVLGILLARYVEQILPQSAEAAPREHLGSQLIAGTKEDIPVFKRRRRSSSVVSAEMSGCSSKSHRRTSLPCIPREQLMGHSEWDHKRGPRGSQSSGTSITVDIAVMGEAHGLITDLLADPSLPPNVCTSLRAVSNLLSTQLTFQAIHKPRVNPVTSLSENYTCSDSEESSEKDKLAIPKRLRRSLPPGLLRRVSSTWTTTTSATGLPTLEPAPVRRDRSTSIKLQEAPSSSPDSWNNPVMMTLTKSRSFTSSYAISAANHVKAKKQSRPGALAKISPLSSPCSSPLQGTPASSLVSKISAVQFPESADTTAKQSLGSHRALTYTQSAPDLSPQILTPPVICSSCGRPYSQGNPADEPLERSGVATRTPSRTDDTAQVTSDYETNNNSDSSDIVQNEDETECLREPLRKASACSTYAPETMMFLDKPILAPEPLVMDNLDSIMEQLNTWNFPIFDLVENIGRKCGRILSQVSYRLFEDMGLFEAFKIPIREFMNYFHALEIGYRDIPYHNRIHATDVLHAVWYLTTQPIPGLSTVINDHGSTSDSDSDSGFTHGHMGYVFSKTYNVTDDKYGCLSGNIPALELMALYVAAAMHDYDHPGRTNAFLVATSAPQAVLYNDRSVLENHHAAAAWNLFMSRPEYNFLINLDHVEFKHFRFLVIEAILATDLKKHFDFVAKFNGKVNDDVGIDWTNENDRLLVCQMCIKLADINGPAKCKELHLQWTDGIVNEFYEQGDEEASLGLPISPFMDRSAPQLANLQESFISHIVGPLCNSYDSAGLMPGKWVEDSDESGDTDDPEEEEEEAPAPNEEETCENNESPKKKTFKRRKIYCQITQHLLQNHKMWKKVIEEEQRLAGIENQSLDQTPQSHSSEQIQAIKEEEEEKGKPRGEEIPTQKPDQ
Experimental: Compounds A, B, C, and D were tested in Panlab assays to evaluate potential off-target activity using standard assay kits. Methods employed in these studies have been adapted from the scientific literature to maximize reliability and reproducibility.
IC50 values were determined by a non-linear, least squares regression analysis using MathIQ™ (ID Business Solutions Ltd., UK). […] Where presented, the Hill coefficient (nH), defining the slope of the competitive binding curve, was calculated using MathIQ™.

ALK = biological target: T4, ALK (Homo sapiens, UniProt Q9UM73); assay: 33PanQinase radiometric kinase assay, ALK; assay type: biochemical; conditions: in vitro, read-out: percent inhibition of ALK
T4 construct: purchased ProQinase; host or cells: Sf9 insect cells or E. coli
T4 sequence (Q9UM73 19-1620): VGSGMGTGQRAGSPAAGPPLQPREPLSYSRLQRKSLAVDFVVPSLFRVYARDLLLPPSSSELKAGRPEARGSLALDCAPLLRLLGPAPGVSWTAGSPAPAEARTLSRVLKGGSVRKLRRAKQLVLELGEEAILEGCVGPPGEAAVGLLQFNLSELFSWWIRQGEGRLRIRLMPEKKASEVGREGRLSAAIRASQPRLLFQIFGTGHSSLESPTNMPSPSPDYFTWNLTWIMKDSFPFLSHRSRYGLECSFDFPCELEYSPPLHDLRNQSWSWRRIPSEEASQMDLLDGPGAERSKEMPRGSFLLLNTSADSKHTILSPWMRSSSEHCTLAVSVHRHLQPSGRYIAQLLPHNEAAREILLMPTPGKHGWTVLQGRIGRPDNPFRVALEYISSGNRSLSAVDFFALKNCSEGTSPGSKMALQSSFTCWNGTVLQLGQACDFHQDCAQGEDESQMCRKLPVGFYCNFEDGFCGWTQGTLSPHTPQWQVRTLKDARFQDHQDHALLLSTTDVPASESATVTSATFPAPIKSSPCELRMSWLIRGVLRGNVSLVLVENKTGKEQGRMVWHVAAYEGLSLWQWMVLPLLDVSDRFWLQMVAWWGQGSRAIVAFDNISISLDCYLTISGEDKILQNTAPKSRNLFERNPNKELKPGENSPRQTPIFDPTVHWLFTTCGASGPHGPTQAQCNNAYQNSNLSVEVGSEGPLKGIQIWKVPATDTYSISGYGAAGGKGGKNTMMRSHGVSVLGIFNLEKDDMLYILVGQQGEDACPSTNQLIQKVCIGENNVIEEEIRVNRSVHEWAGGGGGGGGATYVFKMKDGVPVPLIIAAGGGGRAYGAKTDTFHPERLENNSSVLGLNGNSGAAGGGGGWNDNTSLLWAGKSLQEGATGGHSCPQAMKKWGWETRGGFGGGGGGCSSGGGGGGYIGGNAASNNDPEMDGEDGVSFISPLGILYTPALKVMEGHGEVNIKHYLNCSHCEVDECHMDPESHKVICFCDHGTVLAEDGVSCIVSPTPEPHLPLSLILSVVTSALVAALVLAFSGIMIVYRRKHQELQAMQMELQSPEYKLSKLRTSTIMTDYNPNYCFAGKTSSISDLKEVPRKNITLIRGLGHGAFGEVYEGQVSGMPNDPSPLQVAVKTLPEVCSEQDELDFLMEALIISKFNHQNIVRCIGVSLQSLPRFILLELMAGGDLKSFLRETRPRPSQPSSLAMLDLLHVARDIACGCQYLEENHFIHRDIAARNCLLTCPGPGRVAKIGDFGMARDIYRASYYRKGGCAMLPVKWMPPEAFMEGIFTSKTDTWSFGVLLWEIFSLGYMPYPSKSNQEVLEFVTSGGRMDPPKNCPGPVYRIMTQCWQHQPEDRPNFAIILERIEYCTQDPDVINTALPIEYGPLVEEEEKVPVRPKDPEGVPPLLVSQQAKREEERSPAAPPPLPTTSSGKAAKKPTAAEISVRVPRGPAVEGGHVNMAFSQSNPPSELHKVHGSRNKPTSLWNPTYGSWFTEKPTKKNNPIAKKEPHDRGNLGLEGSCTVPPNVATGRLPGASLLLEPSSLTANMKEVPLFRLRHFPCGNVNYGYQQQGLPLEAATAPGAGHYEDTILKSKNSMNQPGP
Experimental: as §3, §4
The CAMKID, CAMK2A, CAMK2B, CAMK2D, CAMK4, CAMKK1, CAMKK2, DAPK2, EEF2K, MYLK, MYLK2 and MYLK3 assays additionally contained 1 μg/ml Calmodulin and 0.5 mM CaCl2). The PRKG1 and PRKG2 assays additionally contained 1 μM cGMP. The DNA-PK assay additionally contained 2.5 μg/ml DNA. […] Incorporation of 33Pi (counting of “cpm”) was determined with a microplate scintillation counter (Microbeta, Wallac). […]
For each kinase, the median value of the cpm of three wells was defined as “low control” (n=3). This value reflects unspecific binding of radioactivity to the plate in the absence of a protein kinase but in the presence of the substrate. […] The residual activity (in %) for each compounds well was calculated by using the following formula: […]

C[C@]12CC=C3C=C4CC[C@@H](O)C[C@]45CC[C@]3(O5)[C@@H]1CC[C@@H]2c1ccc2ccncc2c1 [Compound A, (3S,3aR,9R,10aR,12aS,12bR)-3-(isoquinolin-7-yl)-3a-methyl-1,2,3,3a,4,7,8,9,10,11,12,12b-dodecahydro-10a,12a-epoxybenzo[4,5]cyclohepta[1,2-e]inden-9-ol]
IC50 (Adenosine Transporter): 3.61 µM
nH (Hill coefficient), Adenosine Transporter (Adenosine Transporter): 1.30
Ki (Adenosine Transporter; Cheng and Prusoff): 1.23 µM
number of kinases with an average of >50% inhibition (320 protein kinases): 5
IC50 (Tachykinin NK1): 5.94 µM
nH (Hill coefficient), Tachykinin NK1 (Tachykinin NK1): 1.01
Ki (Tachykinin NK1; Cheng and Prusoff): 4.3 µM
IC50 (Phosphodiesterase PDE3): 3.26 µM
inhibition at 1 µM (ALK): < 10%
